Data set [1] can be described thus: Cytotoxic activity, standard tetrazolium (MTT) assay on HaCaT cells. As to conditions: human, HaCaT keratinocyte cells, 24 h incubation with compound, 1-200 µg/mL. It is filed as cell-based. Here is the method: (§1) Cytotoxic properties of pure compounds were determined with a standard tetrazolium assay. B16 (6000 cells/well) and HaCaT (10,000 cells/well) cells were seeded in RPMI 1640 medium with 5% fetal calf serum (FCS) and antibiotic at day 0 in well-plate. Incubation was performed at 37 °C in an atmosphere of 5% CO2. After 24 h of incubation, compounds were added at different concentrations (1, 10, 50, 100, and 200 µg/mL), and the plate was incubated 24 h more (37 °C, 5% CO2). Cell growth and viability were then measured at 540 nm, using a MTT (3-[4,5-dimethylthiazol-2-yl]-2,5-diphenyltetrazolium bromide) assay. Each experiment was repeated at least three times.

Data set [2] is described as follows: Cytotoxic activity, standard tetrazolium (MTT) assay on B16 cells. It is filed as cell-based, murine. As to conditions: mouse, B16 melanoma cells, 24 h incubation with compound, 1-200 µg/mL. Here is the method: as §1

≈ marks a conversion by molar mass, not a printed value. Non-standard residues stand in square brackets, D forms with d. Residues, ends and D or L forms follow the SMILES beside them. *: point of attachment. Tyr(3-Br) = N[C@@H](Cc1ccc(O)c(Br)c1)C(=O)O; Boc = CC(C)(C)OC(=O)*

`C[S+]([O-])CC[C@@H]1NC(=O)[C@@H]2CCCN2C1=O` (stereo partly drawn) [Compound 1, cyclo (L-Pro-L-OMet)]: the IC50 at 24 h in data set [1] and in data set [2] was over 200 µg/mL in each case.

Take `O=C1N[C@@H](Cc2ccc(O)cc2)C(=O)N2CCC[C@@H]12` [Compound 2, cyclo (L-Pro-L-Tyr)]: the IC50 at 24 h in data set [1] and in data set [2] was over 200 µg/mL throughout.

Consider `O=C1N[C@@H](Cc2ccc(O)cc2)C(=O)N2CCC[C@H]12` [Compound 3, cyclo (D-Pro-L-Tyr)], for which the IC50 at 24 h in data set [1] and in data set [2] was over 200 µg/mL in each case.

As to `CC(C)[C@@H]1NC(=O)[C@@H]2CCCN2C1=O` [Compound 4, cyclo (L-Pro-L-Val)], the IC50 at 24 h in data set [1] and in data set [2] was over 200 µg/mL in each case.

With `CC(C)C[C@@H]1NC(=O)[C@@H]2CCCN2C1=O` [Compound 5, cyclo (L-Pro-L-Leu)], the half-maximal inhibitory concentration (IC50) at 24 h in data set [1] and in data set [2] was over 200 µg/mL in each case.

On to `O=C1N[C@@H](Cc2ccc(O)c(Br)c2)C(=O)N2CCC[C@H]12` [Compound 6, cyclo (D-Pro-L-Br-Tyr)], for which the IC50 at 24 h in data set [1] and in data set [2] was over 200 µg/mL each time.

Turning to `O=C1N[C@@H](Cc2ccc(O)c(Br)c2)C(=O)N2CCC[C@@H]12` [Compound 7, cyclo (L-Pro-L-Br-Tyr)], the 50% inhibitory concentration (IC50) at 24 h in data set [1] and in data set [2] was over 200 µg/mL each time.

On to `O=Cc1c[nH]c2ccccc12` [Compound 8, indole-carboxaldehyde], for which the values for the IC50 at 24 h in data set [1] and in data set [2] were 79 ± 6 µg/mL (≈ 544 µM) and 72 ± 6 µg/mL (≈ 496 µM), respectively.

As to `COC(=O)[C@H]1CCCN1C(=O)[C@H](Cc1ccc(O)c(Br)c1)NC(=O)OC(C)(C)C` [Compound 13a, Methyl ((S)-3-(3-bromo-4-hydroxyphenyl)-2-((tert-butoxycarbonyl)amino)propanoyl)-D-prolinate] (Boc-[Tyr(3-Br)]-[dP]-OMe), the half-inhibitory concentration (IC50) at 24 h in data set [1] and in data set [2] was over 200 µg/mL each time.

Consider `COC(=O)[C@@H]1CCCN1C(=O)[C@H](Cc1ccc(O)c(Br)c1)NC(=O)OC(C)(C)C` [Compound 13b, Methyl ((S)-3-(3-bromo-4-hydroxyphenyl)-2-((tert-butoxycarbonyl)amino)propanoyl)-L-prolinate] (Boc-[Tyr(3-Br)]-Pro-OMe), for which the IC50 – broadly, the concentration at which inhibition is half-maximal – at 24 h came to 7 ± 2.5 µg/mL (≈ 14.9 µM) in data set [1] and 18 ± 5 µg/mL (≈ 38.2 µM) in data set [2].

The record behind these values is PMC6155340, “Isolation and Structure Identification of Novel Brominated Diketopiperazines from Nocardia ignorata—A Lichen-Associated Actinobacterium” (Molecules : A Journal of Synthetic Chemistry and Natural …, 2017).
